Assay [1] concerns the target T1, human B1R receptor (CHO K1 cells stably transfected with the human B1R gene) (Homo sapiens, UniProt P46663).
T1 construct: expressed in transfected cells; host or cells: CHO K1 cells (Chinese hamster ovary), stably transfected
T1 sequence (P46663 1-353): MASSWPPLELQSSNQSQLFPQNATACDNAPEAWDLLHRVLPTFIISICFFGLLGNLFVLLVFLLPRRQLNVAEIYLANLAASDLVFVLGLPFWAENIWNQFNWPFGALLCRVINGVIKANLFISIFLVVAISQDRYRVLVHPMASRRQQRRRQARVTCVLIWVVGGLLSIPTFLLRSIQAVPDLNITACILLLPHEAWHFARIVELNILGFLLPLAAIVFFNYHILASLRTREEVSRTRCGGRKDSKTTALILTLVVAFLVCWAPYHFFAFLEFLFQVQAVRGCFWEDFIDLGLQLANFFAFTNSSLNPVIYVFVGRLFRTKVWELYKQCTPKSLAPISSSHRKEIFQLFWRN
Nature of the assay: Functional study on the bradykinin receptor 1 (B1R), Ca2+ fluorescence (Fluo-4) FLIPR/Novostar assay, hB1R cells. It is filed as cell-based. As to conditions: for inhibition at 10 µM: CHO-K1, read-out: % inhibition (human B1R) at 10 μM. The method, boiled down: (§1)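 Test compounds (10 μM) were added first and the Ca2+ rise was scored as % activation against Lys-Des-Arg9-bradykinin (≥50 nM, human) or Des-Arg9-bradykinin (≥1 μM, rat). After 6-20 min, the matching agonist was given at its EC80, and % inhibition relative to maximal achievable inhibition was calculated.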

The target in assay [2] is T2, B1R receptor of the rat (CHO K1 cells stably transfected with the B1R gene of the rat) (Rattus norvegicus, UniProt P97583).
T2 construct: expressed in transfected cells; host or cells: CHO K1 cells (Chinese hamster ovary), stably transfected
T2 sequence (P97583 1-337): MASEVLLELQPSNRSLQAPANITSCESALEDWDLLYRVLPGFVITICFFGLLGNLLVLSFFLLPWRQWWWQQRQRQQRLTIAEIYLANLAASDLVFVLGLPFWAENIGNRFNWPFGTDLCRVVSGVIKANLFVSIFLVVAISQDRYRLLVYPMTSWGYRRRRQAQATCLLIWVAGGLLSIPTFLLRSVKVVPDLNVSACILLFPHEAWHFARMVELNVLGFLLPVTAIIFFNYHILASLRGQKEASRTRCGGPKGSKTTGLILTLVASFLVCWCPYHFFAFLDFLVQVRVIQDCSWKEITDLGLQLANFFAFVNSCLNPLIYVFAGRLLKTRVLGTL
Nature of the assay: Functional study on the bradykinin receptor 1 (B1R), Ca2+ fluorescence (Fluo-4) FLIPR/Novostar assay, rB1R cells. It is filed as cell-based. The settings on record: for inhibition at 10 µM: CHO-K1, 10 μM, read-out: % inhibition (rat B1R) at 10 μM. Put shortly: as §1

What is called inhibition is the relative decrease from the control value, in per cent. Take `O=C(NC1CCN(c2ccncc2)CC1)c1ccc2c(c1)[C@H](NC(=O)c1ccccc1Cl)CC2` [Example H-07, (3R)-3-[(2-Chloro-benzoyl)amino]-N-(1-pyridin-4-yl-piperidin-4-yl)-2,3-dihydro-1H-indene-5-carboxylic acid amide]: the values for the inhibition at 10 µM in assay [1] and in assay [2] were 43% and 96%, respectively.
Taken in the same sequence, the figures for `O=C(N[C@H]1CCN(C2CCN(C3CC3)CC2)C1)c1ccc2c(c1)[C@H](NC(=O)c1ccccc1Cl)CC2` [Example H-09, (3R)-3-[(2-Chloro-benzoyl)amino]-N-[(3S)-1-(1-cyclopropyl-piperidin-4-yl)-pyrrolidin-3-yl]-2,3-dihydro-1H-indene-5-carboxylic acid amide] were 38% and 83%.
Turning to `O=C(NCC1CCCN(c2ccncc2)C1)c1ccc2c(c1)[C@H](NC(=O)c1ccccc1Cl)CC2` (stereo partly drawn) [Example H-10, (3R)-3-[(2-Chloro-benzoyl)amino]-N-[(1-pyridin-4-yl-piperidin-3-yl)-methyl]-2,3-dihydro-1H-indene-5-carboxylic acid amide], the inhibition at 10 µM was found to be 18% in assay [1] and 97% in assay [2].
Take `CN(C(=O)c1ccc2c(c1)CC[C@H]2N1Cc2cccc(Cl)c2C1=O)C1CCN(c2ccncc2)CC1` [Example H-11, (1R)-1-(4-Chloro-3-oxo-1,2-dihydro-isoindol-2-yl)-N-methyl-N-(1-pyridin-4-yl-piperidin-4-yl)-2,3-dihydro-1H-indene-5-carboxylic acid amide]: the inhibition at 10 µM was 99% in assay [1] and 49% in assay [2].
The matching figures for `CN(C(=O)c1ccc2c(c1)[C@H](N1Cc3cccc(Cl)c3C1=O)CC2)C1CCN(c2ccncc2)CC1` [Example H-12, (3R)-3-(4-Chloro-3-oxo-1,2-dihydro-isoindol-2-yl)-N-methyl-N-(1-pyridin-4-yl-piperidin-4-yl)-2,3-dihydro-1H-indene-5-carboxylic acid amide]: 100% and 100%.
With `CN1CCN(C2CCC(NC(=O)c3ccc4c(c3)[C@H](NC(=O)c3ccccc3Cl)CC4)C(C)(C)C2)CC1` (stereo partly drawn) [Example H-14, (3R)-3-[(2-Chloro-benzoyl)amino]-N-[2,2-dimethyl-4-(4-methyl-piperazin-l-yl)-cyclohexyl]-2,3-dihydro-1H-indene-5-carboxylic acid amide], the “% inhibition (human B1R) at 10 μM” value in assay [1] is on record as 64%. Further, the “% inhibition (rat B1R) at 10 μM” value in assay [2] (10 μM) is on record as 76%.
On to `O=C(NCCC1CCN(c2ccncc2)CC1)c1ccc2c(c1)[C@H](NC(=O)c1ccccc1Cl)CC2` [Example H-15, (3R)-3-[(2-Chloro-benzoyl)amino]-N-[2-(1-pyridin-4-yl-piperidin-4-yl)-ethyl]-2,3-dihydro-1H-indene-5-carboxylic acid amide], for which the inhibition at 10 µM worked out at 100% in assay [1] and 99% in assay [2].
The matching figures for `CN(C(=O)c1ccc2c(c1)CC[C@H]2NS(=O)(=O)c1ccccc1Cl)C1CCN(c2ccncc2)CC1` [Example H-16, (1R)-1-[[(2-Chlorophenyl)sulfonyl]amino]-N-methyl-N-(1-pyridin-4-yl-piperidin-4-yl)-2,3-dihydro-1H-indene-5-carboxylic acid amide]: 100% and 92%.
In the case of `CN(C(=O)c1ccc2c(c1)CC[C@H]2NC(=O)c1ccccc1Cl)C1CCN(c2ccncc2)CC1` [Example H-17, (1R)-1-[(2-Chloro-benzoyl)amino]-N-methyl-N-(1-pyridin-4-yl-piperidin-4-yl)-2,3-dihydro-1H-indene-5-carboxylic acid amide], the inhibition at 10 µM in assay [1] came to 100%; in assay [2], 77%.
The matching figures for `CN(C(=O)c1ccc2c(c1)[C@H](NC(=O)C1CCC1)CC2)C1CCN(c2ccncc2)CC1` [Example H-18, (3R)-3-(Cyclobutanecarbonylamino)-N-methyl-N-(1-pyridin-4-yl-piperidin-4-yl)-2,3-dihydro-1H-indene-5-carboxylic acid amide]: 100% and 102%.
For `CN(C(=O)c1ccc2c(c1)[C@H](NC(=O)C(C)(C)C)CC2)C1CCN(c2ccncc2)CC1` [Example H-19, (3R)-3-(2,2-Dimethyl-propanoylamino)-N-methyl-N-(1-pyridin-4-yl-piperidin-4-yl)-2,3-dihydro-1H-indene-5-carboxylic acid amide], the inhibition at 10 µM in assay [1] turned out to be 98%; in assay [2] it was 103%.
Take `CN(C(=O)c1ccc2c(c1)[C@H](NC(=O)c1ccccc1Cl)CCO2)C1CCN(c2ccncc2)CC1` [Example H-20, (4R)-4-[(2-Chloro-benzoyl)amino]-N-methyl-N-(1-pyridin-4-yl-piperidin-4-yl)-3,4-dihydro-2H-chromene-6-carboxylic acid amide]: the inhibition at 10 µM was found to be 100% in assay [1] and 103% in assay [2].
The matching figures for `CN(C(=O)c1ccc2c(c1)[C@@H](NC(=O)c1ccccc1Cl)CC2)C1CCN(c2ccncc2)CC1` [Example H-21, (3S)-3-[(2-Chloro-benzoyl)amino]-N-methyl-N-(1-pyridin-4-yl-piperidin-4-yl)-2,3-dihydro-1H-indene-5-carboxylic acid amide]: 99% and 105%.
Consider `CN(C(=O)c1ccc2c(c1)[C@H](NC(=O)c1cnn3cccnc13)CC2)C1CCN(c2ccncc2)CC1` [Example H-22, N-[(1R)-6-[Methyl-(1-pyridin-4-yl-piperidin-4-yl)-carbamoyl]-2,3-dihydro-1H-indene-1-yl]-pyrazolo[1,5-a]pyrimidine-3-carboxylic acid amide], for which the values for the inhibition at 10 µM in assay [1] and in assay [2] were 100% and 87%, respectively.
Taken in the same sequence, the figures for `CN(C(=O)c1ccc2c(c1)[C@H](NC(=O)c1ccccc1Cl)CC2)C1CCN(c2ccccn2)CC1` [Example H-23, (3R)-3-[(2-Chloro-benzoyl)amino]-N-methyl-N-(1-pyridin-2-yl-piperidin-4-yl)-2,3-dihydro-1H-indene-5-carboxylic acid amide] were 97% and 93%.
On to `CN(C(=O)c1ccc2c(c1)[C@H](NC(=O)c1cccc(C(F)(F)F)c1Cl)CC2)C1CCN(c2ccncc2)CC1` [Example H-24, (3R)-3-[[2-Chloro-3-(trifluoromethyl)-benzoyl]amino]-N-methyl-N-(1-pyridin-4-yl-piperidin-4-yl)-2,3-dihydro-1H-indene-5-carboxylic acid amide], for which the inhibition at 10 µM stood at 100% in assay [1] and 98% in assay [2].
As for `CN(C(=O)c1ccc2c(c1)[C@H](NC(=O)Cc1ccccc1)CC2)C1CCN(c2ccncc2)CC1` [Example H-25, (3R)-N-Methyl-3-[(2-phenyl-acetyl)amino]-N-(1-pyridin-4-yl-piperidin-4-yl)-2,3-dihydro-1H-indene-5-carboxylic acid amide], the results for the inhibition at 10 µM in assay [1] and in assay [2] were 100% and 96%, respectively.
As to `CN(C(=O)c1ccc2c(c1)CC[C@H]2N1Cc2cccc(Cl)c2C1=O)C1CCN(c2ccccn2)CC1` [Example H-26, (1R)-1-(4-Chloro-3-oxo-1,2-dihydro-isoindol-2-yl)-N-methyl-N-(1-pyridin-2-yl-piperidin-4-yl)-2,3-dihydro-1H-indene-5-carboxylic acid amide], the inhibition at 10 µM in assay [1] was determined as 52%; in assay [2], 0%.

The record behind these values is patent publication US8680159B2, “Bradykinin 1 receptor modulating compounds” (Gruenenthal GmbH, priority 2010, dated 2014).
